Laboratory results taken from patent US7964531B2, “3-phenoxy-4-pyridazinol derivatives and herbicidal composition containing the same” (Mitsui Chemicals Agro, Inc., priority 2001, dated 2011).

Experiments:
Assay type in all cases: in vivo
corn [1] = assay: Test Example 6: crop injury against corn (foliar treatment); conditions: after 14 days
Source text: (§1) Judgment Standard • 0: Growth inhibition rate; 0 to 9% • 1: Growth inhibition rate; 10 to 19% • 2: Growth inhibition rate; 20 to 29% • 3: Growth inhibition rate; 30 to 39% • 4: Growth inhibition rate; 40 to 49% • 5: Growth inhibition rate; 50 to 59% • 6: Growth inhibition rate; 60 to 69% • 7: Growth inhibition rate; 70 to 79% • 8: Growth inhibition rate; 80 to 89% • 9: Growth inhibition rate; 90 to 98% • 10: Growth inhibition rate; 99 to 100%.
(§2) Upland soil was filled in 150 cm^2 pot, and seeds of barnyardgrass, Cyperus esculentus L., velvetleaf, black nightshade, tall morningglory and corn were sowed, and grown in a greenhouse. After the weeds were grown with 10 to 15 cm or so, a predetermined chemical dosage of the wettable powder prepared in accordance with Preparation example 5 was diluted with water containing 0.05% of GRAMIN S and applied as a foliar treatment. After 14 days from the treatment, herbicidal effects and crop injury were judged in accordance with the judgment standard of Test example 5, and the results were shown in Tables 9 and 10. Incidentally, “-” in the table means no effective ingredient was contained.

black nightshade [2] = assay: Test Example 6: herbicidal effects, upland (foliar treatment); conditions: after 14 days
Source text: as §1, §2

velvetleaf [3] = assay: as above; conditions: after 14 days
Source text: as §1, §2

barnyardgrass [4] = assay: as above; conditions: after 14 days
Source text: as §1, §2

tall morningglory [5] = assay: as above; conditions: after 14 days
Source text: as §1, §2

Cyperus esculentus L. [6] = assay: as above; conditions: after 14 days
Source text: as §1, §2

black nightshade [7] = assay: Test Example 5: herbicidal effects, upland (soil treatment); conditions: after 21 days
Protocol: (§3) Upland soil was filled in 150 cm^2 pot, and seeds of barnyardgrass, Cyperus esculentus L., velvetleaf, black nightshade, tall morningglory and corn were sowed, and grown in a greenhouse. At the next day of seeding, a predetermined chemical dosage of the wettable powder prepared in accordance with Preparation example 5 was diluted with water and applied to soil surface. After 21 days from the treatment, herbicidal effects and crop injury against corn were judged according to the following judgment standard, and the results were shown in Tables 6 to 8.
as §1

velvetleaf [8] = assay: as above; conditions: after 21 days
Protocol: as §3, §1

barnyardgrass [9] = assay: as above; conditions: after 21 days
Protocol: as §3, §1

tall morningglory [10] = assay: as above; conditions: after 21 days
Protocol: as §3, §1

Cyperus esculentus L. [11] = assay: as above; conditions: after 21 days
Protocol: as §3, §1

corn [12] = assay: Test Example 5: crop injury against corn (soil treatment); conditions: after 21 days
Protocol: as §3, §1

CS(=O)(=O)c1ccc(C(=O)C2C(=O)CCCC2=O)c(Cl)c1 [Compound E, 2-(2-chloro-4-mesylbenzoyl)cyclohexan-1,3-dione]
1 (Growth inhibition rate; 10 to 19%): Herbicidal effects Barnyard grass (barnyardgrass [4]; E alone 50 g/ha)
9 (Growth inhibition rate; 90 to 98%): Herbicidal effects Black Nightshade (black nightshade [2]; E alone 50 g/ha) | Herbicidal effects Velvetleaf (velvetleaf [3]; E alone 50 g/ha) | Herbicidal effects Tall Morningglory (tall morningglory [5]; E alone 200 g/ha) | Herbicidal effects Black Nightshade (black nightshade [7]; E alone 200 g/ha) | Herbicidal effects Barnyard grass (barnyardgrass [9]; E alone 100 g/ha)
2 (Growth inhibition rate; 20 to 29%): Herbicidal effects Barnyard grass (barnyardgrass [4]; E alone 100 g/ha)
10 (Growth inhibition rate; 99 to 100%): Herbicidal effects Black Nightshade (black nightshade [2]; E alone 100 g/ha) | Herbicidal effects Black Nightshade (black nightshade [2]; E alone 200 g/ha) | Herbicidal effects Velvetleaf (velvetleaf [3]; E alone 100 g/ha) | Herbicidal effects Velvetleaf (velvetleaf [3]; E alone 200 g/ha) | Herbicidal effects Velvetleaf (velvetleaf [8]; E alone 200 g/ha) | Herbicidal effects Barnyard grass (barnyardgrass [9]; E alone 200 g/ha) | Herbicidal effects Tall Morningglory (tall morningglory [10]; E alone 200 g/ha)
8 (Growth inhibition rate; 80 to 89%): Herbicidal effects Cyperus esculentus (Cyperus esculentus L. [6]; E alone 200 g/ha) | Herbicidal effects Cyperus esculentus (Cyperus esculentus L. [11]; E alone 50 g/ha) | Herbicidal effects Cyperus esculentus (Cyperus esculentus L. [11]; E alone 100 g/ha) | Herbicidal effects Cyperus esculentus (Cyperus esculentus L. [11]; E alone 200 g/ha)
6 (Growth inhibition rate; 60 to 69%): Herbicidal effects Tall Morningglory (tall morningglory [5]; E alone 50 g/ha) | Herbicidal effects Cyperus esculentus (Cyperus esculentus L. [6]; E alone 50 g/ha) | Herbicidal effects Black Nightshade (black nightshade [7]; E alone 100 g/ha) | Herbicidal effects Tall Morningglory (tall morningglory [10]; E alone 50 g/ha)
0 (Growth inhibition rate; 0 to 9%): Crop injury against corn (corn [1]; E alone 50 g/ha) | Crop injury against corn (corn [1]; E alone 100 g/ha) | Crop injury against corn (corn [1]; E alone 200 g/ha) | Crop injury against corn (corn [12]; E alone 50 g/ha) | Crop injury against corn (corn [12]; E alone 100 g/ha) | Crop injury against corn (corn [12]; E alone 200 g/ha)
7 (Growth inhibition rate; 70 to 79%): Herbicidal effects Barnyard grass (barnyardgrass [4]; E alone 200 g/ha) | Herbicidal effects Tall Morningglory (tall morningglory [5]; E alone 100 g/ha) | Herbicidal effects Cyperus esculentus (Cyperus esculentus L. [6]; E alone 100 g/ha) | Herbicidal effects Black Nightshade (black nightshade [7]; E alone 50 g/ha) | Herbicidal effects Velvetleaf (velvetleaf [8]; E alone 50 g/ha) | Herbicidal effects Velvetleaf (velvetleaf [8]; E alone 100 g/ha) | Herbicidal effects Barnyard grass (barnyardgrass [9]; E alone 50 g/ha) | Herbicidal effects Tall Morningglory (tall morningglory [10]; E alone 100 g/ha)

CS(=O)(=O)c1ccc(C(=O)C2C(=O)CCCC2=O)c([N+](=O)[O-])c1 [Compound F, 2-(4-mesyl-2-nitrobenzoyl)cyclohexan-1,3-dione]
0 (Growth inhibition rate; 0 to 9%): Crop injury against corn (corn [1]; F alone 25 g/ha) | Crop injury against corn (corn [1]; F alone 50 g/ha) | Crop injury against corn (corn [1]; F alone 100 g/ha) | Herbicidal effects Barnyard grass (barnyardgrass [4]; F alone 25 g/ha) | Herbicidal effects Barnyard grass (barnyardgrass [4]; F alone 50 g/ha) | Crop ijury against corn (corn [12]; F alone 25 g/ha) | Crop ijury against corn (corn [12]; F alone 50 g/ha) | Crop ijury against corn (corn [12]; F alone 100 g/ha)
7 (Growth inhibition rate; 70 to 79%): Herbicidal effects Black Nightshade (black nightshade [2]; F alone 25 g/ha)
8 (Growth inhibition rate; 80 to 89%): Herbicidal effects Black Nightshade (black nightshade [7]; F alone 100 g/ha) | Herbicidal effects Barnyard grass (barnyardgrass [9]; F alone 50 g/ha) | Herbicidal effects Tall Morningglory (tall morningglory [10]; F alone 100 g/ha) | Herbicidal effects Cyperus esculentus (Cyperus esculentus L. [11]; F alone 25 g/ha)
4 (Growth inhibition rate; 40 to 49%): Herbicidal effects Cyperus esculentus (Cyperus esculentus L. [6]; F alone 25 g/ha) | Herbicidal effects Barnyard grass (barnyardgrass [9]; F alone 25 g/ha)
9 (Growth inhibition rate; 90 to 98%): Herbicidal effects Black Nightshade (black nightshade [2]; F alone 100 g/ha) | Herbicidal effects Velvetleaf (velvetleaf [3]; F alone 25 g/ha) | Herbicidal effects Tall Morningglory (tall morningglory [5]; F alone 100 g/ha) | Herbicidal effects Velvetleaf (velvetleaf [8]; F alone 25 g/ha) | Herbicidal effects Barnyard grass (barnyardgrass [9]; F alone 100 g/ha) | Herbicidal effects Cyperus esculentus (Cyperus esculentus L. [11]; F alone 50 g/ha) | Herbicidal effects Cyperus esculentus (Cyperus esculentus L. [11]; F alone 100 g/ha)
10 (Growth inhibition rate; 99 to 100%): Herbicidal effects Black Nightshade (black nightshade [2]; F alone 50 g/ha) | Herbicidal effects Velvetleaf (velvetleaf [3]; F alone 50 g/ha) | Herbicidal effects Velvetleaf (velvetleaf [3]; F alone 100 g/ha) | Herbicidal effects Velvetleaf (velvetleaf [8]; F alone 50 g/ha) | Herbicidal effects Velvetleaf (velvetleaf [8]; F alone 100 g/ha)
5 (Growth inhibition rate; 50 to 59%): Herbicidal effects Tall Morningglory (tall morningglory [5]; F alone 50 g/ha) | Herbicidal effects Cyperus esculentus (Cyperus esculentus L. [6]; F alone 50 g/ha) | Herbicidal effects Tall Morningglory (tall morningglory [10]; F alone 50 g/ha)
2 (Growth inhibition rate; 20 to 29%): Herbicidal effects Barnyard grass (barnyardgrass [4]; F alone 100 g/ha) | Herbicidal effects Tall Morningglory (tall morningglory [5]; F alone 25 g/ha) | Herbicidal effects Tall Morningglory (tall morningglory [10]; F alone 25 g/ha)
3 (Growth inhibition rate; 30 to 39%): Herbicidal effects Black Nightshade (black nightshade [7]; F alone 50 g/ha)
6 (Growth inhibition rate; 60 to 69%): Herbicidal effects Cyperus esculentus (Cyperus esculentus L. [6]; F alone 100 g/ha) | Herbicidal effects Black Nightshade (black nightshade [7]; F alone 25 g/ha)
